Experimental data as given in patent US10322154B2, “Sandalwood oil and its uses related to clostridium infections” (Santalis Pharmaceuticals, Inc., priority 2012, dated 2019).
“And” between values parts separate entries of the source, which are not always exact repeats. Identical values can stand only once.

Tested on: Clostridium difficile
Assay: C. difficile challenge in mice, qualitative fecal pellet analysis
Format: in vivo, C57BL/6 mouse
Design: key: +: positive (for the presence of C. difficile in the stool); −: negative
Conditions: 50 mg/kg oral gavage Days 0-4, per animal
Protocol: Challenge Preparation: Challenge preparation was performed inside an anaerobe glove box in IW 305 in order to minimize oxygen exposure. A seed stock of the challenge organism (C. difficile) was thawed and added to the appropriate growth medium on Day −1. The organism was incubated anaerobically overnight (18-24 hrs) at 37° C. On the day of challenge (Day 0), the culture was diluted in DPBS to achieve a target concentration of 10^4 CFU/dose. Syringes with attached gavage needles were loaded with challenge material and placed on ice for transfer to the animal group.
Polymer Carrier: The polymer carrier used in these studies was a composition comprising polyethylene glycol 8000 (PEG8000) and hydroxypropyl methylcellulose acetate succinate (HPMCAS-LF). HPMCAS-LF was used to make the polymer insoluble at low pH. The formulation comprising a polymer carrier and sandalwood oil comprised about 50% PEG8000, about 41.67% sandalwood oil and about 8.33% HPMCAS-LF.
60 female C57BL\6 mice that weighed approximately 26-30 grams and were approximately 7-11 weeks old on Day 0 were used. The C57BL/6 mouse is susceptible to C. difficile and used extensively as a good animal model for the evaluation of antibacterial therapeutics. Treatments were administered via oral gavage and/or intraperitoneally in order to mimic treatment in humans. The challenge was administered via oral gavage as this is both an effective and minimally invasive route of administration that mimics the natural route of infection.
The body weights required for randomization were determined in Week −1 (the lowest body weights were excluded from randomization). After randomization, mice were assigned to one of six groups as indicated below in Table 6:
Treatment Procedure: All treatment doses were vortexed before administration to animals. On Days −6, −5 and −4, animals were administered the antibiotic cocktail via oral gavage at a volume of 0.3 mL. Treatments were administered ±1 hour from the initial day of dosing. On Day −1, animals were administered Clindamycin (10 mg/kg) via intraperitoneal (IP) at a volume of 0.4 mL. Post-challenge on Days 0-4, animals were administered the appropriate test article as listed in the table above via oral gavage at a volume of 0.3 mL. Treatments were administered ±1 hour from the initial day of dosing.
Challenge: On Day 0, mice were challenged via oral gavage with Clostridium difficile at a volume of 0.2 mL. The bacterial suspension was supplied (and maintained) on ice in pre filled syringes and inverted prior to administration to each group. […]
Microbiology Analysis: To isolate C. difficile, fecal pellets or swabs were solubilized in PBS and then cultured onto CDSA. […] Results were recorded as positive (for the presence of C. difficile in the stool) or negative.

SMILES: CN[C@H](CC(C)C)C(=O)N[C@H]1C(=O)N[C@@H](CC(N)=O)C(=O)N[C@H]2C(=O)N[C@H]3C(=O)N[C@H](C(=O)N[C@H](C(=O)O)c4cc(O)cc(O)c4-c4cc3ccc4O)[C@H](O)c3ccc(c(Cl)c3)Oc3cc2cc(c3O[C@@H]2O[C@H](CO)[C@@H](O)[C@H](O)[C@H]2O[C@H]2C[C@](C)(N)[C@H](O)[C@H](C)O2)Oc2ccc(cc2Cl)[C@H]1O [Vancomycin]
- Qualitative Fecal Pellet Analysis (presence of C. difficile in the stool) (Day 1): −
- Qualitative Fecal Pellet Analysis (presence of C. difficile in the stool) (Day 2, 50 mg/kg): − (9×) and +
- Qualitative Fecal Pellet Analysis (presence of C. difficile in the stool) (Day 3): −
- Qualitative Fecal Pellet Analysis (presence of C. difficile in the stool) (Day 4): −
